Measured values as given in patent EP4714449A1, “USE OF HETEROCYCLIC COMPOUND FOR TREATING DISEASES RELATED TO RET GENETIC CHANGE AND METHOD THEREFOR” (Sichuan Kelun-Biotech Biopharmaceutical Co., Ltd., priority 2023, dated 2024).
“And” between values parts separate entries of the source, which are not always exact repeats. Equal values may be shown once. Where a name gives a salt, the structure may show the parent alone. One block for each molecule: values may come before it.

Experiments:
Ba/F3 KIF5B-RET^V804M = assay: Proliferation of RET mutant cells (Cell Titer Glo); type: cell-based; settings: for IC50: Mus musculus, BaF3, 72 h, 3 days, read-out: Inhibition IC50 (nM) of the compounds on the proliferation of the cell
Experimental: (§1) Ba/F3 cells (Ba/F3 KIF5B-RET^V804E, Ba/F3 KIF5B-RET^V804L, Ba/F3 KIF5B-RET^V804M) in logarithmic phase were respectively collected and inoculated into 96-well plates, with 1000 cells/95 µl/well. […] In addition, negative control wells (without the test compound) and blank control wells (without cells) were set.
(§2) Inhibition rate % = [1 - (average signal value of compound group - average signal value of blank control) / (average signal value of negative control - average signal value of blank control)] * 100%; the inhibition rate % was fitted using the four-parameter equation "log(agonist) vs response-variable slope (four parameters)" in GraphPad Prism 6.0, and the IC50 was obtained by calculation.

Ba/F3 KIF5B-RET^V804E = assay: Proliferation of RET mutant cells (Cell Titer Glo); type: cell-based; settings: for IC50: Mus musculus, BaF3, 72 h, 3 days, read-out: Inhibition IC50 (nM) of the compounds on the proliferation of the cell
Experimental: as §1, §2

Ba/F3 KIF5B-RET^V804L = assay: Proliferation of RET mutant cells (Cell Titer Glo); type: cell-based; settings: for IC50: Mus musculus, BaF3, 72 h, Ba/F3 KIFSB-RET^V804L, 3 days, read-out: Inhibition IC50 (nM) of the compounds on the proliferation of the cell
Experimental: as §1, §2

Ba/F3 KIF5B-RET^G810C = assay: Proliferation of RET mutant cells (Cell Titer Glo); type: cell-based; settings: for IC50: Mus musculus, BaF3, 72 h, 3 days, read-out: Inhibition IC50 (nM) of the compounds on the proliferation of the cell
Experimental: (§3) Experimental method: Ba/F3 cells (Ba/F3 KIF5B-RET^G810R, Ba/F3 KIF5B-RET^G810S, Ba/F3 KIFSB-RET^G810C) in logarithmic phase were respectively collected and inoculated into 96-well plates, with 2000 cells/95 µl/well. […] In addition, negative control wells (without the test compound) and blank control wells (without cells) were set.
as §2

Ba/F3 KIF5B-RET^G810R = assay: Proliferation of RET mutant cells (Cell Titer Glo); type: cell-based; settings: for IC50: Mus musculus, BaF3, 72 h, 3 days, read-out: Inhibition IC50 (nM) of the compounds on the proliferation of the cell
Experimental: as §3, §2

Ba/F3 KIF5B-RET^G810S = assay: Proliferation of RET mutant cells (Cell Titer Glo); type: cell-based; settings: for IC50: Mus musculus, BaF3, 72 h, 3 days, read-out: Inhibition IC50 (nM) of the compounds on the proliferation of the cell
Experimental: as §3, §2

RET-G810S = RET-G810S (Homo sapiens, UniProt P07949, G810S); assay: RET inhibition experiment, HTRF KinEASE-TK kit, mutant RET-G810S enzyme; type: biochemical
Chain of RET-G810S (P07949 29-1114 G810S): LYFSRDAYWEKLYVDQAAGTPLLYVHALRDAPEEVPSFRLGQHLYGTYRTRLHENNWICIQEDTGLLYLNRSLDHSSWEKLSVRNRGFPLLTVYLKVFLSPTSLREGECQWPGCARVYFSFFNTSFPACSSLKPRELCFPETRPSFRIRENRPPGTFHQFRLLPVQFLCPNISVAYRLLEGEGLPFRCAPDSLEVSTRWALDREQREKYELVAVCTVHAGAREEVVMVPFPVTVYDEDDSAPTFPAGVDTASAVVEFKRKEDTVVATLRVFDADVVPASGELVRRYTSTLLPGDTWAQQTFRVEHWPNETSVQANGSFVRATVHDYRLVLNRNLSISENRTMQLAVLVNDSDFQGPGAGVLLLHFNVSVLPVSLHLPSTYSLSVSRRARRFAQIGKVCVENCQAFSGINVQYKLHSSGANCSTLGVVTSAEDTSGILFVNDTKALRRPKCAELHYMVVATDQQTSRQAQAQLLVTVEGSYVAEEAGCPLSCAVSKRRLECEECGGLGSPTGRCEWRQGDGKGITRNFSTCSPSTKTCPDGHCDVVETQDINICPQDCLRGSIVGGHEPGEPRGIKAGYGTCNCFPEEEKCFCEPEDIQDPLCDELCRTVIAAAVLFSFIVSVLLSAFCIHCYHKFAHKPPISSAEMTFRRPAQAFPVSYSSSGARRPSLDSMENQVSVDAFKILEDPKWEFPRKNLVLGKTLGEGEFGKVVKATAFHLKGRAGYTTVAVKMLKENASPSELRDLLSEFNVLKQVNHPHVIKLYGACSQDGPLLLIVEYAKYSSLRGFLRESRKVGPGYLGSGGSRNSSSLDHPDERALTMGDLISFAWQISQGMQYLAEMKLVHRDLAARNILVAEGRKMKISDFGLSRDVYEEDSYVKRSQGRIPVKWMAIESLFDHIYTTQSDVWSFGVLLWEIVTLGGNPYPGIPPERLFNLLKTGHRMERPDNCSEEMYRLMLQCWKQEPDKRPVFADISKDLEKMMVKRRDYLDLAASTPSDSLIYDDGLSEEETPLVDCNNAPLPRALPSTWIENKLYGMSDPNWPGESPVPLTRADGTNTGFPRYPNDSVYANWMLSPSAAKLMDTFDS

RET-G810C = RET-G810C (Homo sapiens, UniProt P07949, G810C); assay: RET inhibition experiment, HTRF KinEASE-TK kit, mutant RET-G810C enzyme; type: biochemical
Chain of RET-G810C (P07949 29-1114 G810C): as the sequence (P07949 29-1114 G810S) above, with S782C counted along it

[1] = tested on: non-small cell lung cancer (NSCLC); assay: Treatment of NSCLC patients (subgroups of the clinical study); type: in vivo, human; design: disease control rate (DCR) / overall central nervous system disease control rate (CNS DCR): concentration or dose not given beside the values
Experimental: (§4) A total of 90 patients were recruited, including 70 patients with non-small cell lung cancer (NSCLC), 18 patients with medullary thyroid carcinoma (MTC), 1 patient with pancreatic cancer, and 1 patient with ovarian cancer. Compound 1-A of the present disclosure was administered once daily at dosage levels of 40-120 mg (40 mg, 60 mg, 90 mg, and 120 mg), resulting in an objective response rate (ORR) of 60% and a disease control rate (DCR) of 94% for the 90 patients.
Among the 70 NSCLC patients, there were 26 who had not been systemically pretreated, 33 who had previously been systemically pretreated (excluding first-generation selective RET inhibitors), and 11 who had been previously treated with at least first-generation selective RET inhibitor therapy.

[2] = Safety evaluation in patients with RET-altered tumors; type: in vivo, human; settings: 109 patients with RET-altered tumors, once daily, 10-120 mg
Experimental: A total of 109 patients with RET-altered tumors were recruited, and compound 1-A of the present disclosure was administered once daily at six dosage levels of 10 mg, 20 mg, 40 mg, 60 mg, 90 mg, and 120 mg.

RET-G810R = RET-G810R (Homo sapiens, UniProt P07949, G810R); assay: RET inhibition experiment, HTRF KinEASE-TK kit, mutant RET-G810R enzyme; type: biochemical
Chain of RET-G810R (P07949 29-1114 G810R): as the sequence (P07949 29-1114 G810S) above, with S782R counted along it

[3] = tested on: NSCLC, MTC, Pancreatic Cancer, and Ovarian Cancer; assay: Treatment of patients with NSCLC, MTC, pancreatic cancer and ovarian cancer; type: in vivo, human; settings: 90 patients (70 NSCLC, 18 MTC, 1 pancreatic cancer, 1 ovarian cancer), once daily 40-120 mg
Experimental: as §4

[4] = Table 7, comparison with BLU-667 and LOXO-292
[5] = 8 NSCLC patients pretreated with first-generation selective RET inhibitors, dosed at 90 mg or 120 mg
[6] = 26 NSCLC patients not systemically pretreated
[7] = 33 NSCLC patients systemically pretreated (excluding first-generation selective RET inhibitors)

IC50 (Ba/F3 KIF5B-RET^V804M): 39.5 ± 16.7 nM | IC50 (Ba/F3 KIF5B-RET^V804E): 76.2 ± 9.74 nM | IC50 (Ba/F3 KIF5B-RET^V804L): 87.1 ± 11.3 nM | IC50 (Ba/F3 KIF5B-RET^G810C): 146 ± 3.4 nM | IC50 (Ba/F3 KIF5B-RET^G810R): 182 ± 80 nM | IC50 (Ba/F3 KIF5B-RET^G810S): 29 ± 4.47 nM
SMILES: CO[C@]1(C(=O)N[C@@H](C)c2ccc(-n3cc(F)cn3)nc2)CC[C@H](c2nc(C)cc(Nc3cc(C)[nH]n3)n2)CC1 [BLU-667, reference compound]

SMILES: Cc1cc(Nc2cc(C)[nH]n2)nc(-c2ccc(N3CC4CC(C3)N4Cc3ccc(-n4cc(F)cn4)nc3)nc2)n1 [Compound 1-A, Fumarate of 2-(6-(6-((6-(4-fluoro-1H-pyrazol-1-yl)pyridin-3-yl)methyl)-3,6-diazabicyclo[3.1.1]heptan-3-yl)pyridin-3-yl)-6-methyl-N-(5-methyl-1H-pyrazol-3-yl)pyrimidin-4-amine]
IC50 (RET-G810S; [4]): 2.69 ± 0.56 nM | inhibition on RET-G810S enzyme (in words) (RET-G810S; summary of Tables 3, 4, 7): remarkably inhibited | IC50 (RET-G810C; [4]): 53.2 ± 10.7 nM | inhibition on RET-G810C enzyme (in words) (RET-G810C; summary of Tables 5, 6, 7): remarkably inhibited | inhibiting the proliferation, comparison in words (Ba/F3 KIF5B-RET^V804M): superior to BLU-667 and Loxo-292 | IC50 (Ba/F3 KIF5B-RET^V804M): 25.5 ± 1.91 nM | inhibiting the proliferation, comparison in words (Ba/F3 KIF5B-RET^V804E): superior to BLU-667 and Loxo-292 | IC50 (Ba/F3 KIF5B-RET^V804E): 59.8 ± 8.33 nM | inhibiting the proliferation, comparison in words (Ba/F3 KIF5B-RET^V804L; Ba/F3 KIF5B-RET^V804L): superior to BLU-667 and Loxo-292 | IC50 (Ba/F3 KIF5B-RET^V804L): 66.6 ± 20.7 nM | partial response (PR), number of patients [1, 5]: 3 patients | stable disease (SD), number of patients [1, 5]: 4 patients | tumor shrinkage observed, share of patients ([1]; 8 NSCLC patients pretreated with first-generation selective RET inhibitors, dosed at 90 mg or 120 mg, 7 patients): 88% | complete response (CR), number of patients [1, 6]: 1 | disease control rate (DCR) [1, 6]: 96% | partial responses (PR), number of patients [1, 6]: 20 | objective response rate (ORR) ([1]; 26 NSCLC patients not systemically pretreated (21/26)): 81% | ERC1-RET fusion-positive patient achieving complete response (CR), number of patients [1, 7]: 1 | disease control rate (DCR) [1, 7]: 97% | objective response rate (ORR) ([1]; 33 NSCLC patients systemically pretreated (excluding first-generation selective RET inhibitors) (23/33)): 70% | response of the NCOA4-RET fusion-positive and RELCH-RET fusion-positive patients ([1]; NSCLC patients not systemically pretreated, 1 patient each): partial responses (PR) | overall central nervous system disease control rate (CNS DCR) ([1]; NSCLC patients with brain metastasis): 100% | reductions of measurable brain lesions after treatment ([1]; six NSCLC patients with brain metastasis and measurable brain lesions, one value per patient): 100% (3×) and 69% and 47% and 17% | dose-limiting toxicities (DLT) [2]: No dose-limiting toxicities (DLT) were observed | maximum tolerated dose (MTD) [2]: nor was the maximum tolerated dose (MTD) reached | treatment-related adverse events (TRAE) of grade 1-2 and reversible [2]: 76.1% | IC50 (RET-G810R; [4]): 19.6 ± 0.67 nM | inhibition on RET-G810R enzyme (in words) (RET-G810R; summary of Tables 1, 2, 7): remarkably inhibited | disease control rate (DCR) [3]: 94% | objective response rate (ORR) [3]: 60% | inhibiting the proliferation, comparison in words (Ba/F3 KIF5B-RET^G810C): superior to BLU-667 and Loxo-292 | IC50 (Ba/F3 KIF5B-RET^G810C): 65.3 ± 1 nM | inhibiting the proliferation, comparison in words (Ba/F3 KIF5B-RET^G810R): superior to BLU-667 and Loxo-292 | IC50 (Ba/F3 KIF5B-RET^G810R): 26.3 ± 5.76 nM | inhibiting the proliferation, comparison in words (Ba/F3 KIF5B-RET^G810S): superior to BLU-667 and Loxo-292 | IC50 (Ba/F3 KIF5B-RET^G810S): 20.2 ± 0.35 nM

IC50 (Ba/F3 KIF5B-RET^V804M): 503 ± 190 nM | IC50 (Ba/F3 KIF5B-RET^V804E): 460 ± 32.9 nM | IC50 (Ba/F3 KIF5B-RET^V804L): 1330 ± 666 nM | IC50 (Ba/F3 KIF5B-RET^G810C): 477 ± 4.4 nM | IC50 (Ba/F3 KIF5B-RET^G810R): 116.3 ± 1.15 nM | IC50 (Ba/F3 KIF5B-RET^G810S): 87.83 ± 0.75 nM
SMILES: COc1ccc(CN2C3CC2CN(c2ccc(-c4cc(OCC(C)(C)O)cn5ncc(C#N)c45)cn2)C3)cn1 [LOXO-292, reference compound]
